Results from patent US20210000750A1, “ENGINEERED NANOVESICLES AS CHECKPOINT BLOCKADE FOR CANCER IMMUNOTHERAPY” (NORTH CAROLINA STATE UNIVERSITY, priority 2018, published 2021).

Columns and labels:
[1] = test system: CD8^+ TILs; format: in vivo, C57BL/6 mice; details: five-group cyclophosphamide study
Procedure: Tumors were dissected from the mice and snap frozen in optimal cutting medium (O.C.T.). Several micrometer sections were cut using a cryotome and mounted on slides. The frozen tumor sections were incubated in PBS for 15 min to remove the embedding medium. The specimens were blocked with the buffer containing 3% BSA. Subsequently, the specimens incubated with CD4 and CD8 primary antibodies (1:50 in 3% BSA) overnight and then washed three times with PBS for 5 min each. After that the specimens were incubated with TRITC secondary antibody (KPL) diluted in 3% BSA at room temperature in the dark for 1 h. Finally, the nucleus was stained with DAPI, and the tissue was washed three times with PBS for 5 min each. Confocal microscopy was performed on a FLUO-VIEW laser scanning confocal microscope […] in sequential scanning mode using a 40×objective.

[2] = five-group cyclophosphamide study
From the text: (§1) B16F10 luciferase-tagged B16F10 (1×10^6) melanoma tumor cells were transplanted into the right flank of C57BL/6 mice. Eight days after tumor inoculation, the tumors volume reach around ˜150 mm^3. These tumors were then resected, leaving about 15 mm^3 (10%) tumor volume to mimic the residual tumors in the surgical bed. Briefly, animals were anesthetized in an induction chamber using isoflurane (up to 5% for induction; 1-3% for maintenance), and anaesthesia was maintained via a nose cone. The tumor area was clipped and aseptically prepped. Sterile instruments were used to remove approximately 90% of the tumor. The wound was closed using an Autoclip wound closing system. The mice were randomly divided into several groups of eight mice (n=8) as indicated. The mice firstly were intravenously injected with different treatment formulations: PBS, free platelets […], PD-1 platelets (˜2×10^8), cyclophosphamide (20 mg/kg), cyclophosphamide loaded free platelets (˜2×10^8) or cyclophosphamide loaded PD-1 platelets (˜2×10^8). Immediately after the injection, the surgery was carried out within 10 min one mouse by one mouse. The tumor burden was monitored via the bioluminescence of the cancer cells.

[3] = test system: Tregs; format: in vivo, C57BL/6 mice; details: five-group cyclophosphamide study
[4] = test system: B16F10 melanoma residual tumor; assay: In vivo anti-tumor efficacy, incomplete-tumor-resection model; design: species or system C57BL/6 mice; details: five-group cyclophosphamide study
From the text: as §1

[5] = test system: B16F10 melanoma tumor; assay: In vivo anti-tumor efficacy study of NVs; design: species or system C57BL/6 mice; details: seven-group study, every 3 days for five cycles
Procedure: Female C57BL/6 mice were purchased from Jackson Lab (USA). All mouse studies were performed in the context of an animal protocol approved by the Institutional Animal Care and Use Committee at North Carolina State University and University of North Carolina at Chapel Hill. Mice were weighed and randomly divided into different groups. 5 d after 1×10^6 B16F10 tumor cells subcutaneously transplanted into the abdomen of mice (the tumor reaches 40-50 mm^3), PBS, Free nanovesicles (25 mg/kg), PD-1 nanovesicles (25 mg/kg), 1-MT (2.5 mg/kg), 1-MT loaded PD-1 nanovesicles (25 mg/kg), anyi-PD-L1 antibody (2 mg/kg) were administered into mice by tail-vein injection. Tumor incidences were monitored by physical examination and sizes were also measured by digital caliper over time. Tumors were measured by using a vernier calipers and the volume (V) was calculated to be V=d^2×D/2, where d is the shortest and the D is longest diameter of the tumor in mm respectively. To assess potential toxicities, mice were monitored daily for weight loss. For survival assays, the experiments were performed separately.
Bioluminescence images were collected with a Xenogen IVIS Spectrum Imaging System. Living Image software (Xenogen) was used to acquire the data 10 min after intraperitoneal injection of d-luciferin (Pierce) in DPBS (15 mg/mL) into animals (10 μL/g of body weight).

Compound	frequency of Ki67+ T cells [1]	hair growth and weight loss [2]	Tregs within the tumor [3]	tumor progression [4]	suppression of tumor growth [5]
O=P1(N(CCCl)CCCl)NCCCO1 (centres unmarked) [cyclophosphamide]	increased the frequency	delayed hair growth in the abdomen and slighted weight loss	selectively depleted Tregs	limited results	–
Cn1cc(C[C@H](N)C(=O)O)c2ccccc21 [1-MT, 1-methyl-tryptophan]	–	–	–	–	limited suppression of tumor growth
